Measured values as given in patent US9849113B2, “Methods of treating α adrenergic mediated conditions” (Allergan, Inc., priority 2008, dated 2017).

Assays:
Chung model rats = experiment: Chung model of chronic pain (spinal nerve ligation), tactile allodynia by von Frey hairs; type: in vivo, rat; conditions: single oral dose, FIG. 1
Procedure: Various concentrations of N-(2,3-dichlorobenzyl)-4,5-dihydro-1H-imidazol-2-amine were administered orally to Chung model rats. A model in accordance with Kim and Chung 1992, Pain […], pp 355-363 (Chung model), for chronic pain (in particular peripheral neuropathy) involves the surgical ligation of the L5 (and optionally the L6) spinal nerves on one side in experimental animals. Rats recovering from the surgery gain weight and display a level of general activity similar to that of normal rats. However, these rats develop abnormalities of the foot, wherein the hindpaw is moderately everted and the toes are held together. More importantly, the hindpaw on the side affected by the surgery appears to become sensitive to pain from low-threshold mechanical stimuli, such as that producing a faint sensation of touch in a human, within about 1 week following surgery. […]
Tactile allodynia is measured prior to and 30 minutes after drug administration using von Frey hairs that are a series of fine hairs with incremental differences in stiffness. […] The applied force has been calculated to range from 0.41 to 15.1 grams. […] The 50% paw withdrawal threshold is determined using the method of Dixon, W. J., Ann. […] The post-drug threshold is compared to the pre-drug threshold and the percent reversal of tactile sensitivity is calculated based on a normal threshold of 15.1 grams.

male ddC treated rats = experiment: Dideoxycytidine (ddC) model of neuropathic pain, allodynia by von Frey hairs; type: in vivo, rat; conditions: for % Allodynia Reversal: 15 min post dose / % Allodynia Reversal: 30 min post dose / % Allodynia Reversal: 60 min post dose / % Allodynia Reversal: 120 min post dose: mean ± SEM
Procedure: The ddC Model in the rat is a relatively new model of neuropathic pain discovered from clinical treatment of the AIDS virus. […] The experimental animal model in the rat for neuropathic pain by ddC injection manifests symptoms of human patients with causalgia. It is considered predictive of clinical activity against neuropathic pain (Joseph et al, 2004). Compound N-(2,3-dichlorobenzyl)-4,5-dihydro-1H-imidazol-2-amine was tested in this ddC model of allodynic pain. The compound was administered intraperitoneally to male ddC treated rats.
The animals are injected intraperitoneally (IP) with 25 mg/kg dideoxycytidine (ddC) using a sterile 30 gauge needle. Approximately 3 weeks after the ddC injection a painful neuropathy develops causing sensitivity to light touch on the animals' extremities. This neuropathy can last for 2-3 months. The animals show no spontaneous pain, only a heightened response to mechanical stimuli (von Frey hair stimulation). The allodynia is quantitated in the animals receiving ddC injections by stimulation with a series of 8 Von Frey hairs on the mid planter area of the hind paws in the up-down manner described by Dixon (Dixon, 1980).
Male Sprague-Dawley rats (Charles River, Wilmington, Mass.) weighing approximately 150-300 grams were used for these studies. All experimental animals received N-(2,3-dichlorobenzyl)-4,5-dihydro-1H-imidazol-2-amine or vehicle in a single acute IP dose. In all studies, baseline measurements were taken prior to drug administration and then at 15, 30, 60 and 120 minutes post acute IP dosing (vehicle or N-(2,3-dichlorobenzyl)-4,5-dihydro-1H-imidazol-2-amine). The % allodynia reversal is calculated as: [(Postdrug threshold—Predrug threshold)/(15-Predrug threshold)]×100.
N-(2,3-dichlorobenzyl)-4,5-dihydro-1H-imidazol-2-amine was dissolved in 42% DMSO (dimethyl sulfoxide; Sigma, St. Louis, Mo.) at a concentration of 3 mg/ml. This stock solution was kept frozen at −20° C., was thawed on the day of the study and diluted in dd-H2O to concentrations ranging from 0.01-0.1 mg/ml for IP dosing (dosing volume=1 ml/kg). The vehicle is dd-H2O for these studies.
Data were compiled and analyzed using Microsoft Excel and/or Kaleidagraph. Data are expressed as mean± standard error of the mean. Comparisons between drug treated and vehicle groups were made using a two-tailed, 2-sample, unpaired t-test. Comparisons between baselines (pre-drug) and post-drug time points were made using a two-tailed, 2-sample, paired t-test.

**Q.** How did the “Time of decrease of allodynia reversal to baseline” value (Chung model rats) turn out when `Clc1cccc(CNC2=NCCN2)c1Cl` [N-(2,3-dichlorobenzyl)-4,5-dihydro-1H-imidazol-2-amine] was run?
**A.** about 120 minutes

**Q.** And the “Time of peak percent allodynia reversal” value (Chung model rats)?
**A.** 30 min

**Q.** What about the “% Allodynia Reversal: 15 min post dose” value (male ddC treated rats; 0.01 mg/kg IP, n = 6) of the same molecule?
**A.** 1.8 ± 1.6%

**Q.** And the “% Allodynia Reversal: 30 min post dose” value (male ddC treated rats; 0.01 mg/kg IP, n = 6)?
**A.** 3.0 ± 1.7%

**Q.** What about the “% Allodynia Reversal: 60 min post dose” value (male ddC treated rats; 0.01 mg/kg IP, n = 6) of the same molecule?
**A.** 1.5 ± 2.0%

**Q.** What about the “% Allodynia Reversal: 120 min post dose” value (male ddC treated rats; 0.01 mg/kg IP, n = 6) of the same molecule?
**A.** 0.1 ± 1.3%

**Q.** And the “% Allodynia Reversal: 15 min post dose” value (male ddC treated rats; 0.03 mg/kg IP, n = 6)?
**A.** 34 ± 3.9 %

**Q.** And the “% Allodynia Reversal: 30 min post dose” value (male ddC treated rats; 0.03 mg/kg IP, n = 6)?
**A.** 67%

**Q.** And the “% Allodynia Reversal: 60 min post dose” value (male ddC treated rats; 0.03 mg/kg IP, n = 6)?
**A.** 20 ± 3.7 %

**Q.** And the “% Allodynia Reversal: 120 min post dose” value (male ddC treated rats; 0.03 mg/kg IP, n = 6)?
**A.** 2.0 ± 2.6%

**Q.** And the “% Allodynia Reversal: 30 min post dose” value (male ddC treated rats; 0.03 mg/kg IP, n = 6, listed as 200762)?
**A.** 67 ± 9.0 %

**Q.** What about the “% Allodynia Reversal: 15 min post dose” value (male ddC treated rats; 0.1 mg/kg IP, n = 6) of the same molecule?
**A.** 58 ± 9.1 %

**Q.** What about the “% Allodynia Reversal: 30 min post dose” value (male ddC treated rats; 0.1 mg/kg IP, n = 6) of the same molecule?
**A.** 86%

**Q.** And the “% Allodynia Reversal: 60 min post dose” value (male ddC treated rats; 0.1 mg/kg IP, n = 6)?
**A.** 34 ± 2.5 %

**Q.** What about the “% Allodynia Reversal: 120 min post dose” value (male ddC treated rats; 0.1 mg/kg IP, n = 6) of the same molecule?
**A.** 0.9 ± 1.2%

**Q.** What about the “% Allodynia Reversal: 30 min post dose” value (male ddC treated rats; 0.1 mg/kg IP, n = 6, listed as 200762) of the same molecule?
**A.** 86 ± 6.3 %

**Q.** What about the “Minimal statistically significant efficacious dose” value (male ddC treated rats; IP, male rats) of the same molecule?
**A.** 0.03 mg/kg

**Q.** What about the No-effect dose (male ddC treated rats; IP, male rats) of the same molecule?
**A.** 0.01 mg/kg
